The source of these data is PubChem BioAssay (NCI).

Molecules are shown by their SMILES.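 Cultured in 96-well plates, cells were exposed to test compound for 48 hours across five concentrations. GI50 is the concentration that inhibits growth by half. TGI is the concentration that stops growth completely.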

Common to all, as to assay: NCI tumour cell line growth inhibition, 48 h
Assay [1] concerns 786-0 renal.
Assay [2] relates to COLO 205 colon.
Assay [3] deals with HS 578T breast.
The subject of assay [4] is MDA-N.
The test system of assay [5] is RPMI-8226 leukemia.
Assay [6] concerns RXF 393 renal.
The subject of assay [7] is SK-MEL-2 melanoma.
For assay [8], the system named is SR leukemia.
Assay [9] deals with UO-31 renal.
Assay [10] concerns DLD-1 colon.
In assay [11] the test system is KM20L2 colon.
Assay [12] has as its system SNB-78 CNS.
The test system of assay [13] is XF 498 CNS.

Consider `C[C@]12Cc3cnc(-c4ccccc4)nc3C[C@@H]1CC[C@@H]1[C@@H]2CC[C@@]2(C)[C@H]1CC[C@]2(C)O`, for which the TGI in assay [1] was 27.5 µM; in assay [2], 43.2 µM; in assay [3] it was 65.2 µM; in [4], 48.9 µM; in assay [5], 55 µM; in assay [6] it was 12.3 µM. The results for the TGI in assay [7], in [8] and in assay [9] were 58.3 µM, 88.5 µM and 7.06 µM, respectively.

With `O=C1CCCC/C1=C1/SC(=Nc2ccccc2)C(=Nc2ccccc2)N1c1ccccc1`, the TGI in [2] was above 100 µM; in [3], above 100 µM; in assay [4] it was above 100 µM; in assay [5] it was above 100 µM; in [6] it was 40 µM; in [7], above 100 µM. In addition, the TGI in [8] and in assay [9] was above 100 µM in each case.

Regarding `O=NN1C(c2ccccc2)C2CCCC(C2=O)C1c1ccccc1` (stereo not drawn), the TGI in assay [2] is 32 µM; in assay [10], above 100 µM; in assay [11] it was 25.9 µM; in assay [5] it was 48.4 µM; in [6] it was 41.8 µM; in [7] it was 40.5 µM. Further, the TGI is above 100 µM in assay [12], above 76.2 µM in assay [9] and 33.3 µM in assay [13].

On to `O=C(O)C(O)(c1ccc(-c2ccccc2)cc1)c1ccc(-c2ccccc2)cc1`, for which the TGI in [1] was 80.4 µM; in [4], 34.5 µM; in assay [5], above 100 µM; in assay [6] it was 51.6 µM; in assay [7], 30.6 µM; in assay [8], above 100 µM. Also, the TGI in assay [9] was above 100 µM.

For the molecule `COC1CC(OC2CCC3(C)C(=CCC4C3C(OC(C)=O)C(OC(=O)CC(C)C)C3(C)C(C(C)=O)CCC43O)C2)OC(C)C1OC1CC(OC)C(OC2CC(OC)C(OC3OC(C)C(O)C(OC)C3O)C(C)O2)C(C)O1` (stereo not drawn), the TGI in assay [1] was 59.9 µM; in assay [2], 45 µM; in assay [3], above 100 µM; in assay [4] it was above 100 µM; in assay [5], 45.8 µM; in [6], 47.2 µM. Moreover, the TGI was 93.3 µM in assay [7], 62 µM in assay [8] and above 100 µM in assay [9].

In the case of `COc1ccc(NC(=S)NNC(=O)c2nsc3ccccc23)cc1`, the TGI in assay [2] was above 100 µM; in assay [11] it was above 100 µM; in assay [5], above 100 µM; in [6] it was 72.9 µM; in assay [7], 90.8 µM; in assay [12], above 100 µM. For the same molecule, the TGI in [8] was above 100 µM; in [9] it was 69.1 µM.

Take `COc1ccc(C(=O)NC2=C(Cl)C(=O)c3ccccc3C2=O)cc1`: the TGI is 3.74 µM in [2]; 33.5 µM in assay [3]; 10.7 µM in assay [4]; 8.25 µM in [6]; 3.13 µM in assay [7]; above 19.6 µM in assay [8]. Also, the TGI in assay [9] came out at 8.75 µM.

Consider `Clc1ccc(C2CC(c3cccc(Nc4ccncc4)c3)=NN2c2ccc(Cl)cc2)cc1` (stereo not drawn), for which the GI50 in assay [2] is 2.09 µM; in assay [6], 1.54 µM; in assay [9] it was 1.42 µM. The TGI in assay [2] is 4.75 µM; in assay [6] it was 2.94 µM; in assay [9], 2.74 µM.

As to `Nc1c(OCC(=O)O)ccc2cc(S(=O)(=O)O)ccc12`, the TGI in assay [1], in assay [2], in [3], in assay [4], in assay [5] and in assay [6] was above 100 µM each time. For the same molecule, the TGI in [7] and in [9] was above 100 µM in each case.

For the molecule `Clc1cc2ccccc2c2ccccc12`, the TGI in [1] is above 100 µM; in assay [2], above 100 µM; in [3], above 100 µM; in assay [5] it was above 100 µM; in [6], above 100 µM; in assay [7] it was 73.3 µM. Moreover, the TGI in assay [8] and in assay [9] was above 100 µM throughout.

Regarding `c1ccc2c(c1)OCCc1cn[nH]c1-2`, the TGI in assay [2], in assay [10], in [11], in assay [6], in assay [7] and in assay [12] was above 100 µM in each case. The TGI in assay [9] and in [13] was above 100 µM in each case.

Turning to `CCOC(=O)c1nc2ccccc2n(CC)c1=O`, the TGI in assay [2], in assay [3], in [4], in assay [5], in assay [6] and in [7] was above 100 µM in each case. Also, the TGI in [8] and in assay [9] was above 100 µM in each case.

For `CC[C@@]1(OC(=O)CN(C)C)C(=O)OCc2c1cc1n(c2=O)Cc2cc3c(N)cccc3nc2-1`, the GI50 in [2] was 0.656 µM; in [3] it was 2.03 µM; in [5], 0.0636 µM; in [6] it was 0.144 µM; in assay [7] it was 1.24 µM; in assay [8] it was below 0.01 µM. Further, the GI50 in [9] is 0.0166 µM. The TGI is 6.9 µM in assay [2]; 58 µM in [3]; 0.541 µM in assay [5]; 0.576 µM in [6]; above 100 µM in assay [7]; 0.176 µM in assay [8]. The TGI in [9] is 0.057 µM.

As to `OC(c1ccc(Cl)cc1)(c1ccc(Cl)cc1)c1cncnc1`, the TGI in assay [2] is 35.2 µM; in assay [3], 66.6 µM; in [4], 37.7 µM; in assay [5] it was 85.3 µM; in assay [6], 28.4 µM; in assay [7] it was 32 µM. Moreover, the TGI is above 100 µM in [8] and 31.3 µM in assay [9].

As for `CN(C)CCCNc1ccc2nnn3c4ccc(OC(=O)c5ccccc5)cc4c(=O)c1c23`, the TGI in [1] came out at 17.5 µM; in assay [2], 28.9 µM; in assay [3] it was 36.6 µM; in assay [4], 30.1 µM; in assay [5] it was 25.5 µM; in assay [6], 12.8 µM. In addition, the TGI is 32.9 µM in assay [7], 2.61 µM in assay [8] and 20.8 µM in assay [9].

Consider `CN(CCO)Cc1ncccc1O`, for which the TGI in assay [2], in assay [3], in assay [5], in assay [6], in assay [7] and in assay [8] was above 100 µM in each case. In [9], the TGI was above 100 µM.

As to `COc1cc2c(cc1OC)C1c3ccccc3CCN1CCC2` (stereo not drawn), the TGI in assay [1], in assay [2], in assay [4], in assay [5], in [8] and in [9] was above 100 µM each time.

For the molecule `NC1C=NNC1=O` (stereo not drawn), the TGI in assay [2], in assay [10], in [11], in assay [5], in [6] and in [7] was above 100 µM throughout. The TGI in [12], in assay [9] and in [13] was above 100 µM throughout.
